“And” between values parts separate entries of the source, which are not always exact repeats. Identical values can stand only once.

Format in all cases: cell-based
The subject of test [1] is Staphylococcus aureus ATCC 25923. The test can be described thus: Antimicrobial activity, microdilution MIC, S. aureus reference strain. The settings on record: Staphylococcus aureus, ATCC25923, 24 h, MIC90, 24 h, MHB2; read-out: MIC S. aureus ATCC 25923. The method, then: (§1) The antimicrobial potential of the tested agents was evaluated against two reference strains of bacteria: Staphylococcus aureus ATCC 25923 and Escherichia coli K12, two reference strains of pathogenic yeasts, Candida albicans ATCC10231 and Candida glabrata DSMZ11226, as well as 20 strains of clinical isolates of S. aureus collected from patients with skin and soft tissue infections (n = 8) and strains derived from subclinical bovine mastitis milk samples (n = 12). Four of these strains, two isolated from human infections and two isolated from bovine mastitis, were classified as MRSA (Methicillin-resistant Staphylococcus aureus). All of them were mecA positive and their methicillin resistance was confirmed with the disc diffusion assay. The remaining 16 strains were MSSA (Methicillin-sensitive Staphylococcus aureus). The assays were performed using a serial, two-fold dilution method in 96-well microtiter plates under conditions recommended by the Clinical and Laboratory Standards Institute (CLSI, Pittsburgh, PA, USA). The aim of this procedure was the determination of the MIC parameter (Minimum Inhibitory Concentration)—the minimum concentration of a tested agent capable to inhibit the growth of a specified strain of microorganism. The agents were solubilized in deionized, sterile water to a final concentration of […]. Subsequently, solutions were mixed (1:1 (v/v)) with 2 × concentrated liquid medium, Mueller-Hinton Broth 2—cation adjusted (MHB2) for evaluation of antibacterial activity and RPMI in the case of evaluation of the antifungal activity. […] Subsequently, the solutions were mixed with MHB2 or RPMI medium to get the final concentration of 8.192 mg/mL (8192 µg/mL). In the next step, the serial, two-fold dilutions of the tested agents (over the range of concentrations from 8192 to 8 µg/mL for reference strains of bacteria and yeasts and from 512 to 1.0 µg/mL for clinical isolates of S. aureus) were prepared in 96-well microtitration plates in the final volume of 100 μL of the appropriate medium.
(§2) The pure bacterial cultures of (both the reference and clinical strains) were grown on the Mueller-Hinton Agar (MHA) for 18–24 h at 37 °C. A small amount of the biomass of the culture of each strain of microorganisms was suspended in the sterile PBS (phosphate buffered saline, pH 7.4 at 25 °C, purchased from Sigma) solution to get an optical density OD600 = 0.13 (equal to the cells concentration approximately 1 × 10^8 CFU/mL). The obtained suspensions of the cells were next diluted 1:100 (v/v) in the MHB2 medium. One hundred µL of the cells’ suspension was finally loaded into the wells of plates prepared in advance, which contained 100 µL of two-fold dilutions of the tested agents (the final concentration of the bacterial cells in all wells was approximately 5 × 10^5 CFU/mL).
(§3) The pure cultures of yeast strains were grown on the Sabouraud Dextrose Agar (SDA) for 18–24 h at 37 °C. Suspensions of the microorganisms were prepared by taking one loop of pure culture into sterile water and adjusting optical density to 0.1 at 660 nm and further 50-fold dilution in RPMI 1640 medium resulting in cells concentration of approximate 2 × 10^4 CFU/mL. One hundred μL of that suspension was inoculated to the wells of the microtitration plate containing appropriate dilutions of the agents. The positive growth control of each strain (both bacteria and yeasts) was performed in the wells without the tested substances. The negative control containing only the media was included in each assay. Microtiter plates were incubated at 37 °C for 24 h. Following the incubation period, determination of the MIC values of the tested agents was carried out by measuring the absorbance at 531 nm using a Victor^3 microplate reader (Perkin Elmer, Inc., Waltham, MA, USA). The lowest concentration of the agent causing inhibition of growth equal to or higher than 90% (MIC90) of growth control was taken as the MIC value. Each test was repeated three times. […]

Test [2] deals with Candida albicans ATCC 10231. The test can be described thus: Antimicrobial activity, microdilution MIC, C. albicans. The settings on record: Candida albicans, ATCC10231, 24 h, MIC90, 24 h, RPMI; read-out: MIC C. albicans ATCC 10231. On the procedure: as §1
The pure cultures of yeast strains were grown on the Sabouraud Dextrose Agar (SDA) for 18–24 h at 37 °C. Suspensions of the microorganisms were prepared by taking one loop of pure culture into sterile water and adjusting optical density to 0.1 at 660 nm and further 50-fold dilution in RPMI 1640 medium resulting in cells concentration of approximate 2 × 10^4 CFU/mL. One hundred μL of that suspension was inoculated to the wells of the microtitration plate containing appropriate dilutions of the agents. The positive growth control of each strain (both bacteria and yeasts) was performed in the wells without the tested substances. The negative control containing only the media was included in each assay. Microtiter plates were incubated at 37 °C for 24 h. Following the incubation period, determination of the MIC values of the tested agents was carried out by measuring the absorbance at 531 nm using a Victor^3 microplate reader (Perkin Elmer, Inc., Waltham, MA, USA). The lowest concentration of the agent causing inhibition of growth equal to or higher than 90% (MIC90) of growth control was taken as the MIC value. Each test was repeated three times.

Test [3] concerns human keratinocytes (HaCaT cell line). The test can be described thus: Cytotoxicity, MTT assay. The following applies: Homo sapiens, HaCaT; MTT, 24 h incubation; read-out: HaCaT IC50. On the procedure: To assess the cytotoxicity of QAS (IC50), the MTT assay on 96-well polystyrene plates was performed for human keratinocytes (HaCaT, Elabscience Biotechnology Inc., Houston, Texas, USA). The assay utilizes colorimetric determination of the cell metabolic activity and the color intensity reflects the number of live cells that can be measured spectrophotometrically. The cell line was cultured in a Dulbecco’s modified Eagle Medium (Invitrogen) supplemented with 10% fetal bovine serum (Sigma Aldrich) (v/v), 100 units/mL of penicillin, 100 μg/mL of streptomycin, and 2 mM L-glutamine and was stored at 37 °C in a humidified 5% CO2 incubator. Briefly, a day after plating of 500 cells per well, a series of concentrations (0.5–200 μg/mL) of the test compounds was applied. DMSO was added to the control cells at a final concentration of 1.0% (v/v), which was related to the maximal concentration of the solvent compounds used in the experiment. After 24 h of incubation with the QAS at 37 °C (humidified 5% CO2 incubator), a medium containing 1 mg/mL of MTT (3-(4,5-dimethylthiazol-2-yl)-2,5-diphenyltetrazolium bromide) was added to the wells up to a final concentration of 0.5 mg/mL. Subsequently, the plates were incubated at 37 °C for 4 h. Then, the medium was removed by suction, and the formazan product was solubilized with DMSO. The background absorbance at 630 nm was subtracted from that at 570 nm for each well (Epoch, BioTek Instruments, Winooski, VT, USA). Six replicates were conducted for each concentration. All experiments were repeated at least twice and the resulting IC50 values were calculated with GraFit 7 software (v. 7.0, Erithacus, Berkley, CA, USA).

In the next test the test system is Escherichia coli K12. The test can be described thus: Antimicrobial activity, microdilution MIC, E. coli. The following applies: Escherichia coli, K12, 24 h, MIC90, 24 h, MHB2; read-out: MIC E. coli K12. The method, then:
as §1, §2, §3

Turning to `CCCCCCCC[N+](C)(C)C1COC2C1OCC2[N+](C)(C)CCCCCCCC` (centres unmarked) [QAS 9], the MIC in test [1] is 128 µg/mL and 176 µM; in test [2], 1020 µg/mL and 1410 µM; in the test with Escherichia coli K12, 2050 µg/mL and 2820 µM. Further, the 50% inhibitory concentration (IC50) in test [3] is above 100 µg/mL.

Take `CCCCCCCCCC[N+](C)(C)C1COC2C1OCC2[N+](C)(C)CCCCCCCCCC` [QAS 10, N,N’-(1,4:3,6-Dianhydro-2,5-dideoxy-L-iditol-2,5-diyl)-bis(N,N-dimethyl-N-decylammonium) Ditrifluoromethanesulfonate]: the MIC in test [1] was 8 µg/mL and 10 µM; in test [2], 32 µg/mL and 40 µM; in the test on Escherichia coli K12 it was 32 µg/mL and 40 µM. Moreover, the half-inhibitory concentration (IC50) in test [3] was 12.8 ± 1.25 µg/mL.

The values are drawn from publication PMC8838521, “Antimicrobial, Cytotoxic and Mutagenic Activity of Gemini QAS Derivatives of 1,4:3,6-Dianhydro-L-iditol” (Molecules, 2022).
